Assays:
[1] = system: Vero E6; assay: cell viability relative to DMSO; higher = less toxic; conditions: 72 h
[2] = system: HepG2; assay: as above; conditions: 72 h
[3] = system: Caco-2; assay: as above; conditions: 72 h
[4] = system: Calu-3; assay: as above; conditions: 72 h
[5] = system: U2OS; assay: as above; conditions: 72 h
[6] = system: A549-ACE2 infected with SARS-CoV-2; assay: SARS-CoV-2 infection rate relative to DMSO; higher = more infection; conditions: 24 h
[7] = system: A549-ACE2 infected with SARS-CoV-2; assay: morphology score (similarity to uninfected cells); higher = more like uninfected cells; conditions: 24 h
[8] = system: A549-ACE2; assay: phospholipidosis EC50; higher = less potent phospholipidosis inducer
[9] = system: Vero E6; assay: drug sensitivity score (DSS) for viability; higher = more toxic; extreme values may be limits of the assay; conditions: 72 h
[10] = system: HepG2; assay: as above; conditions: 72 h
[11] = system: Caco-2; assay: as above; conditions: 72 h
[12] = system: Calu-3; assay: as above; conditions: 72 h
[13] = system: U2OS; assay: as above; conditions: 72 h
[14] = system: Caco-2; assay: relative viability EC50 (midpoint between 100% and the lowest measured viability); higher = less toxic; conditions: 72 h
[15] = system: U2OS; assay: as above; conditions: 72 h
[16] = system: A549-ACE2; assay: drug-induced phospholipidosis relative to tamoxifen; higher = more phospholipidosis
[17] = system: A549-ACE2 infected with SARS-CoV-2; assay: cell count relative to DMSO; higher = less toxic; conditions: 24 h
[18] = system: Vero E6; assay: relative viability EC50 (midpoint between 100% and the lowest measured viability); higher = less toxic; conditions: 72 h
[19] = system: Calu-3; assay: as above; conditions: 72 h

CSc1ccc2c(c1)[C@H](N1CCN(C)CC1)Cc1ccccc1S2 (racemic) [metitepine]
Conditions | SARS-CoV-2 infection rate [%] | cell count [%] | cell viability [%] | morphology score | phospholipidosis EC50 [µM]
[1], 1 nM | – | – | 106 | – | –
[1], 10 nM | – | – | 104 | – | –
[1], 100 nM | – | – | 102 | – | –
[1], 1000 nM | – | – | 101 | – | –
[1], 10000 nM | – | – | 71.6 | – | –
[2], 1 nM | – | – | 101 | – | –
[2], 10 nM | – | – | 107 | – | –
[2], 100 nM | – | – | 103 | – | –
[2], 1000 nM | – | – | 99 | – | –
[2], 10000 nM | – | – | 64.3 | – | –
[3], 1 nM | – | – | 108 | – | –
[3], 10 nM | – | – | 92.9 | – | –
[3], 100 nM | – | – | 99.2 | – | –
[3], 1000 nM | – | – | 102 | – | –
[3], 10000 nM | – | – | 48.5 | – | –
[4], 1 nM | – | – | 98.4 | – | –
[4], 10 nM | – | – | 101 | – | –
[4], 100 nM | – | – | 98.2 | – | –
[4], 1000 nM | – | – | 104 | – | –
[4], 10000 nM | – | – | 73.2 | – | –
[5], 1 nM | – | – | 98.9 | – | –
[5], 10 nM | – | – | 97.6 | – | –
[5], 100 nM | – | – | 97.1 | – | –
[5], 1000 nM | – | – | 97.2 | – | –
[5], 10000 nM | – | – | 93.2 | – | –
[6], 0.1 µM | 106 | – | – | – | –
[6], 0.3 µM | 90 | – | – | – | –
[6], 1 µM | 88 | – | – | – | –
[6], 3 µM | 47 | – | – | – | –
[7], 0.1 µM | – | – | – | 0.14 | –
[7], 0.3 µM | – | – | – | 0.39 | –
[7], 1 µM | – | – | – | 0.32 | –
[7], 3 µM | – | – | – | 0.72 | –
[8], 24 h | – | – | – | – | 3.04
[8], 48 h | – | – | – | – | 5.86
[8], 72 h | – | – | – | – | 9.23
[17], 0.1 µM | – | 101 | – | – | –
[17], 0.3 µM | – | 104 | – | – | –
[17], 1 µM | – | 108 | – | – | –
[17], 3 µM | – | 94 | – | – | –

Conditions | drug sensitivity score | relative viability EC50 [µM]
[9] | 1.1 | –
[10] | 1.8 | –
[11] | 2.6 | –
[12] | 0.8 | –
[13] | 0 | –
[14] | – | 3.35
[15] | – | > 10

drug-induced phospholipidosis [%], [16]
Conditions | 0.3 µM | 0.833333 µM | 3.33333 µM | 6.66667 µM | 10 µM | 30 µM
24 h | 7.38 | 6.64 | 62.5 | 91.7 | 105 | 86.3
48 h | 6.3 | 11.3 | 47.9 | 92.1 | 115 | –
72 h | 8.87 | 6.23 | 37.4 | 86.6 | 125 | –

CC(C)(Cc1ccc2ccccc2c1)NC[C@@H](O)COc1cccc(Cl)c1C#N [NPS-2143]
Conditions | SARS-CoV-2 infection rate [%] | cell count [%] | cell viability [%] | morphology score | phospholipidosis EC50 [µM]
[1], 1 nM | – | – | 93.1 | – | –
[1], 10 nM | – | – | 97.6 | – | –
[1], 100 nM | – | – | 93.5 | – | –
[1], 1000 nM | – | – | 99.6 | – | –
[1], 10000 nM | – | – | 84.4 | – | –
[2], 1 nM | – | – | 100 | – | –
[2], 10 nM | – | – | 104 | – | –
[2], 100 nM | – | – | 103 | – | –
[2], 1000 nM | – | – | 101 | – | –
[2], 10000 nM | – | – | 53.9 | – | –
[3], 1 nM | – | – | 99.1 | – | –
[3], 10 nM | – | – | 101 | – | –
[3], 100 nM | – | – | 103 | – | –
[3], 1000 nM | – | – | 100 | – | –
[3], 10000 nM | – | – | 50.5 | – | –
[4], 1 nM | – | – | 89.4 | – | –
[4], 10 nM | – | – | 95.8 | – | –
[4], 100 nM | – | – | 96.7 | – | –
[4], 1000 nM | – | – | 103 | – | –
[4], 10000 nM | – | – | 0.6 | – | –
[5], 1 nM | – | – | 100 | – | –
[5], 10 nM | – | – | 97.9 | – | –
[5], 100 nM | – | – | 105 | – | –
[5], 1000 nM | – | – | 96.1 | – | –
[5], 10000 nM | – | – | 39.1 | – | –
[6], 0.3 µM | 101 | – | – | – | –
[6], 3 µM | 23 | – | – | – | –
[6], 10 µM | 43 | – | – | – | –
[7], 0.3 µM | – | – | – | 0.09 | –
[7], 3 µM | – | – | – | 0.87 | –
[7], 10 µM | – | – | – | 0.11 | –
[8], 24 h | – | – | – | – | 1.06
[8], 48 h | – | – | – | – | 2.34
[8], 72 h | – | – | – | – | 3.1
[17], 0.3 µM | – | 100 | – | – | –
[17], 3 µM | – | 113 | – | – | –
[17], 10 µM | – | 68 | – | – | –

Conditions | drug sensitivity score | relative viability EC50 [µM]
[9] | 0.3 | –
[10] | 2.3 | –
[11] | 2.6 | –
[12] | 5.3 | –
[13] | 3.9 | –
[15] | – | 2.65
[18] | – | > 10
[19] | – | 3.32

drug-induced phospholipidosis [%], [16]
Conditions | 0.3 µM | 0.833333 µM | 3.33333 µM | 6.66667 µM | 10 µM | 30 µM
24 h | 14.7 | 30.2 | 98.4 | 140 | 135 | 14.7
48 h | 8.59 | 25.2 | 96.8 | 135 | 132 | –
72 h | 10.7 | 13.3 | 94 | 135 | 133 | –

Reference: the supplement of paper PMC13380429
